Source: US7160992B2, “Amino-modified polysaccharides and methods of generating and using same” (Yeda Research and Development Co., Ltd., priority 2003, dated 2007)
Values joined by “and” are separate entries in the source; they are usually repeats but may differ in a detail not shown here. Equal values may be shown once.

Key:
TAR RNA = assay: Fluorescence anisotropy: RhdRev binding and AAC competition for TAR RNA; parameters: species or system HIV-1; conditions: for Kd: competition of AACs with RhdRev (10 nM) for TAR RNA (20 nM) binding, 85 mM NaCl; for IC50: competition of AACs with RhdRev for TAR RNA binding
RRE IIB RNA = assay: Fluorescence anisotropy: RhdRev binding and AAC competition for RRE IIB RNA; parameters: species or system HIV-1; conditions: for Kd: competition of AACs with RhdRev (10 nM) for RRE IIB RNA (20 nM) binding, 85 mM NaCl; for IC50: competition of AACs with RhdRev for RRE IIB RNA binding
[1] = system: U38, PM1, H9 cells and PBMC; assay: Cellular uptake of AAC-FITC fluorescent probes, fluorescence microscopy; type: cell-based; conditions: 0.5 μM, 10 minutes of incubation
Procedure: Images were obtained using a Zeiss Axiophot microscope.
Cellular uptake using AAC fluorescent probes—U38, PM1, H9 cells and PBMC(10^5) were incubated for 20 minutes at room temperature in 100 μl RPMI 1640 medium (Gibco-BRL, Life-Technologies, UK) including AAC-FITC derivatives as indicated at a final concentration of 0.5 μM. Cells were washed twice, resuspended in 100 μl medium and analyzed with a Zeiss Axiophot fluorescent microscope.

MT-2 cells = assay: Cellular uptake competition of AACs with NeoR6-FITC, flow cytometry; type: cell-based; conditions: for inhibition of NeoR6-FITC uptake, less affinity than NeoR6: 100 fold excess of non-labeled AAC over 0.5 μM NeoR6-FITC; for competition with NeoR6-FITC uptake (in words): 100 fold excess of non-labeled AAC
Procedure: Following 15 minutes of incubation at room temperature, the cells were washed twice with ice-cold PBS and fixed in PBS containing 1% paraformaldehyde. Fluorescence was analyzed using flow cytometry.
After 5 or 15 min of incubation at room temperature, the cells were washed twice with ice-cold PBS and fixed in PBS containing 1% paraformaldehyde. The fluorescence was then analyzed by flow cytometry (FACScan, Becton Dickinson Imunocytometry Systems, San Jose, Calif., USA). For each sample 10,000 events were acquired. Data were analyzed and processed.

CXCR4 = biological target: T1, CXCR4 (Homo sapiens, UniProt P61073); assay: Inhibition of anti-CXCR4 mAb 12G5 binding to cells, flow cytometry; type: cell-based; conditions: for reduction of 12G5 mAb binding to the cells: 10 μM AAC, PM1 cells, 30 min at 4° C.; for inhibition of mAb 12G5 or SDF-1α binding to CXCR4, % of the NeoR6 activity: in comparison to NeoR6
T1 construct: endogenous in cells; host or cells: PM1 cells and PBMC
T1 sequence (P61073 whole entry): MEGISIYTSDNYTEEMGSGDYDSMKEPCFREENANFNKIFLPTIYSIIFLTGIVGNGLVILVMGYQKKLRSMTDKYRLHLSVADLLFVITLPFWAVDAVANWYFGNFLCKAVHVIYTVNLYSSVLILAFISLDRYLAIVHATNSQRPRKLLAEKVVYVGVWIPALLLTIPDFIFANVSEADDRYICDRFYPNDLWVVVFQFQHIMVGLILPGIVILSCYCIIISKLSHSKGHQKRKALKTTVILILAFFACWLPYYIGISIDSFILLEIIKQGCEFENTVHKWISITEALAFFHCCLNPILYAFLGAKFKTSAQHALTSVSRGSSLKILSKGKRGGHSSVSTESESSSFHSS
Procedure: FIGS. 11a–d are graphs depicting the binding of AACs to CXCR4 in the presence of anti CXCR4 antibody (12G5). PM1 cells were incubated with PE-conjugated isotype control mAb, PE-anti CXCR4 conjugated mAb (12G5) alone, or in the presence of the indicated AACs for 30 min at 4° C. The cells were then washed twice with PBS and analyzed by flow cytometry. The MFI values are shown in parenthesis.
Interaction of AACs with CXCR4 was determined by flow cytometry (FACScan, Becton Dickinson) as described recently (Litovchick et al., 2001, supra). Briefly, 0.5×10^6 cells were washed in ice-cold PBS containing 0.1% sodium azide (wash buffer) and incubated at 4° C. with anti-CXCR4 mAb, 12G5 (PharMingen, San Diego, Calif.) conjugated to phycoerithrine (PE), in the absence or presence of different concentrations of the AACs. After 30 min of incubation, the cells were washed with ice-cold wash buffer and fixed in PBS containing 1% paraformaldehyde. Non-specific fluorescence was assessed by using isotype-matched control. For each sample 10,000 events were acquired. Data were analyzed and processed using CellQuest™ software (Becton Dickinson).

PM1 cells = assay: Inhibition of FITC-labeled AAC uptake by SDF-1α, flow cytometry; type: cell-based; conditions: for MFI of FITC-AAC uptake: background MFI of 10
Procedure: Following 20 minutes at room temperature the cells were washed twice with PBS and analyzed by flow cytometry.
Following 30 minutes of incubation, cells were washed with ice-cold wash buffer and analyzed by flow cytometry as described above.

cMAGI cells = assay: Competition between FITC-labelled AACs and RANTES; type: cell-based; conditions: 2.5 mM RANTES
Procedure: Competition between FITC labelled AACs (1 mM) and RANTES (2.5 mM, Pepro Tech Inc., New Jersey, USA) was effected in 2×10^5 cMAGI cells. Following 30 min of incubation, cells were washed with ice-cold wash buffer and analysed by flow cytometry as described above.

HIV-1 isolates = assay: Inhibition of HIV-1 infection (cMAGI reporter cells, MT2 syncytium formation); type: cell-based; conditions: up to 100 μM
Procedure: Aliquots of cell-free culture supernatants were used as viral inoculum. […] Cytotoxicity determinations were carried out in MT2 and H9 cells by trypan blue exclusion assay.
Viral inhibition was determined by incubating cMAGI HIV-1 reporter cells with 0.2–0.5 multiplicity of infection of HIV-1IIIB for 4 days at 37° C. in the presence or absence of various concentration of AACs, prior to counting the number of HIV-1 infected cells (stained blue). The cytopathic effects of the viral infection of MT2 cells were also analyzed by microscopic assessment of syncytium formation. These latter data were obtained by analysis of duplicate samples by two independent observers.

## CC(=O)O.N=C(N)NCCCC(N)C(=O)NCC1OC(OC2C(NC(=O)C(N)CCCNC(=N)N)CC(NC(=O)C(N)CCCNC(=N)N)C(O)C2O)C(NC(=O)C(N)CCCNC(=N)N)C(O)C1O (stereo not drawn) [NeamR4, Neamine tetra-arginine conjugate]
TAR RNA
  Kd: 30 nM and 30.1 nM
  IC50: 82.8 ± 7.7 nM
TAR RNA; ratio of KD to that of NeoR6
  folds less active / times weaker than NeoR6, TAR binding: 6
TAR RNA; up to 20 μM of AAC
  competition with RhdRev for TAR RNA binding (in words): efficiently competed
RRE IIB RNA
  Kd: 55 nM and 54.7 nM
  IC50: 119 ± 13.5 nM
[1]
  cellular uptake of FITC-labeled AAC by PM1 cells: uptaken by PM1 cells
MT-2 cells
  inhibition of NeoR6-FITC uptake, less affinity than NeoR6: about 50%
CXCR4
  reduction of 12G5 mAb binding to the cells: 60%
  inhibition of mAb 12G5 or SDF-1α binding to CXCR4, % of the NeoR6 activity: 70%
PM1 cells; 62.5 nM SDF-1α
  MFI of FITC-AAC uptake: 56
PM1 cells; 125 nM SDF-1α, PM1 cells
  inhibition of cell uptake by SDF-1α: about 50%
PM1 cells; 125 nM SDF-1α
  MFI of FITC-AAC uptake: 52
PM1 cells; 250 nM SDF-1α
  MFI of FITC-AAC uptake: 50
PM1 cells; without SDF-1α
  MFI of FITC-AAC uptake: 96
cMAGI cells
  effect of RANTES on uptake of FITC derivative: did not affect uptake

## gentamicin
HIV-1 isolates
  antiviral activity (in words): did not reveal antiviral activity

## CC(=O)O.N=C(N)NCCCC(N)C(=O)NCC1OC(OC2C(N)CC(N)C(O)C2O)C(N)C(O)C1O (stereo not drawn) [NeamR1, argininamido-neamine conjugate]
TAR RNA
  Kd: > 500 nM
  IC50: > 500 nM
RRE IIB RNA
  Kd: 233 ± 4.5 nM
  IC50: 342 ± 29.5 nM
MT-2 cells
  competition with NeoR6-FITC uptake (in words): did not compete
CXCR4
  reduction of 12G5 mAb binding to the cells: 5%

## CC(=O)O.N=C(N)NCCCC(N)C(=O)NCC1OC(OC2C(CO)OC(OC3C(O)C(N)CC(N)C3OC3OC(CNC(=O)C(N)CCCNC(=N)N)C(O)C(O)C3N)C2O)C(N)C(O)C1O (stereo not drawn) [NeoR2, diargininamido-neomycin B conjugate]
TAR RNA
  Kd: > 500 nM
  IC50: > 500 nM
RRE IIB RNA
  Kd: 112 ± 3.7 nM
  IC50: 208 ± 21.1 nM
MT-2 cells
  inhibition of NeoR6-FITC uptake, less affinity than NeoR6: about 50%
CXCR4
  reduction of 12G5 mAb binding to the cells: 48%
  inhibition of mAb 12G5 or SDF-1α binding to CXCR4, % of the NeoR6 activity: 55%

## NC[C@@H]1O[C@H](O[C@H]2[C@@H](O)[C@H](O[C@@H]3[C@@H](O)[C@H](N)C[C@H](N)[C@H]3O[C@H]3O[C@H](CO)[C@@H](O)[C@H](O)[C@H]3N)O[C@@H]2CO)[C@H](N)[C@@H](O)[C@@H]1O [paromomycin, reference compound]
HIV-1 isolates
  antiviral activity (in words): did not reveal antiviral activity
CXCR4; 20 μM aminoglycoside antibiotic
  inhibition of 12G5 mAb binding to CXCR4 (in words): did not inhibit

## argininamido-neomycin B conjugate [NeoR1]
TAR RNA
  Kd: > 500 nM
  IC50: > 500 nM
RRE IIB RNA
  Kd: 200 ± 5.9 nM
  IC50: 353 ± 31.9 nM
MT-2 cells
  competition with NeoR6-FITC uptake (in words): did not compete
CXCR4
  reduction of 12G5 mAb binding to the cells: 50%
  inhibition of mAb 12G5 or SDF-1α binding to CXCR4, % of the NeoR6 activity: 55%
